In one assay the target is T1, Rab10 (Homo sapiens, UniProt P61026).
T1 construct: near full-length without C-terminal prenylation region; pET-28a, His6 tag cut by TEV; E. coli BL21(DE3)
T1 sequence (P61026 1-181 limits assumed): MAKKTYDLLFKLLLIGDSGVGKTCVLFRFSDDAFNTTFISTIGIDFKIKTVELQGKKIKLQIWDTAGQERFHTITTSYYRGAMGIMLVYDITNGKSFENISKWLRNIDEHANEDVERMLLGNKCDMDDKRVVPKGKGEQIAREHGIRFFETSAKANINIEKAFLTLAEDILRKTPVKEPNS
Briefly: dynamic scanning fluorimetry (SYPRO Orange). It is filed as binding. The following applies: 1 mM nucleotide, 4 uM protein, 2.5 mM MgCl2, pH 7.4.

A further assay deals with T2, Rab29 (Homo sapiens, UniProt O14966).
T2 construct: near full-length without C-terminal prenylation region; pET-28a, His6 tag cut by TEV; E. coli BL21(DE3)
T2 sequence (O14966 1-195 limits assumed): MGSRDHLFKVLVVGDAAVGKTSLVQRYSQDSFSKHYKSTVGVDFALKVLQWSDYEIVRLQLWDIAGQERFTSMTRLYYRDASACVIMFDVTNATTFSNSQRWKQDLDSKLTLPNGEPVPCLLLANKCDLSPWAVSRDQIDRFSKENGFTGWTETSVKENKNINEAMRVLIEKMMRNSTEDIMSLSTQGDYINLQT
Briefly: dynamic scanning fluorimetry (SYPRO Orange). The settings on record: 1 mM nucleotide, 4 uM protein, 2.5 mM MgCl2, pH 7.4. The assay is classed as binding.

The next assay addresses T3, Rab3A (Homo sapiens, UniProt P20336).
T3 construct: near full-length without C-terminal prenylation region; pET-28a, His6 tag cut by TEV; E. coli BL21(DE3)
T3 sequence (P20336 1-200 limits assumed): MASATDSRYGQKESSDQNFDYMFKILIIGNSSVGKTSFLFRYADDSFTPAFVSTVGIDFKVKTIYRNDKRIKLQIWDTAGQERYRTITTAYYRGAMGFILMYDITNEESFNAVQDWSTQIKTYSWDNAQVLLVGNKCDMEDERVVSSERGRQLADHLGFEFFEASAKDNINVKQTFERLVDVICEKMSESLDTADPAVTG
Briefly: dynamic scanning fluorimetry (SYPRO Orange). The assay is classed as binding. The settings on record: 1 mM nucleotide, 4 uM protein, 2.5 mM MgCl2, pH 7.4.

In another assay the target is T4, Rab8B (Homo sapiens, UniProt Q92930).
T4 construct: near full-length without C-terminal prenylation region; pET-28a, His6 tag cut by TEV; E. coli BL21(DE3)
T4 sequence (Q92930 1-203 limits assumed): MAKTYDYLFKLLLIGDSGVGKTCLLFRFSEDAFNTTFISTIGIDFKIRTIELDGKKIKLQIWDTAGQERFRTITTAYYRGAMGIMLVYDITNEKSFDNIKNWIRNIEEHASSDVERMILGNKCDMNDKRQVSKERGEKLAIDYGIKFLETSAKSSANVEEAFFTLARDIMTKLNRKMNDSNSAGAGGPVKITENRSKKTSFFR
Briefly: dynamic scanning fluorimetry (SYPRO Orange). It is filed as binding. The settings on record: 1 mM nucleotide, 4 uM protein, 2.5 mM MgCl2, pH 7.4.

Another assay has as its target T5, Rab8A (Homo sapiens, UniProt P61006).
T5 construct: near full-length without C-terminal prenylation region; pET-28a, His6 tag cut by TEV; E. coli BL21(DE3)
T5 sequence (P61006 1-203 limits assumed): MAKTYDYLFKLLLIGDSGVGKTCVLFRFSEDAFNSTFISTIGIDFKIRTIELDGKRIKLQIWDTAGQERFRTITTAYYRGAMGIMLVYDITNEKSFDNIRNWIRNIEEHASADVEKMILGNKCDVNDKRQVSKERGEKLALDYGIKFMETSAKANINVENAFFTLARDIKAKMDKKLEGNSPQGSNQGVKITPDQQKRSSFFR
Briefly: dynamic scanning fluorimetry (SYPRO Orange). The settings on record: 1 mM nucleotide, 4 uM protein, 2.5 mM MgCl2, pH 7.4; shift relative to apo. The assay is classed as binding.

The target of another assay is T6, Rab1A (Homo sapiens, UniProt P62820).
T6 construct: near full-length without C-terminal prenylation region; pET-28a, His6 tag cut by TEV; E. coli BL21(DE3)
Briefly: dynamic scanning fluorimetry (SYPRO Orange). The assay is classed as binding. The settings on record: 1 mM nucleotide, 4 uM protein, 2.5 mM MgCl2, pH 7.4.

A further assay concerns the target T7, Rab9A (Homo sapiens, UniProt P51151).
T7 construct: near full-length without C-terminal prenylation region; pET-28a, His6 tag cut by TEV; E. coli BL21(DE3)
T7 sequence (P51151 1-180 limits assumed): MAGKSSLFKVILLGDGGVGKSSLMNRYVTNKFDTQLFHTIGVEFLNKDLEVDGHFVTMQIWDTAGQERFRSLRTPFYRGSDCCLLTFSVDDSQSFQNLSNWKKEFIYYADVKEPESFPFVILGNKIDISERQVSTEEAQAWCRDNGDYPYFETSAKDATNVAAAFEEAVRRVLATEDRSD
Briefly: dynamic scanning fluorimetry (SYPRO Orange). The assay is classed as binding. The settings on record: 1 mM nucleotide, 4 uM protein, 2.5 mM MgCl2, pH 7.4.

Another assay addresses T8, Rab12 (Homo sapiens, UniProt Q6IQ22).
T8 construct: near full-length without C-terminal prenylation region; pET-28a, His6 tag cut by TEV; E. coli BL21(DE3)
T8 sequence (Q6IQ22 97-318 limits assumed): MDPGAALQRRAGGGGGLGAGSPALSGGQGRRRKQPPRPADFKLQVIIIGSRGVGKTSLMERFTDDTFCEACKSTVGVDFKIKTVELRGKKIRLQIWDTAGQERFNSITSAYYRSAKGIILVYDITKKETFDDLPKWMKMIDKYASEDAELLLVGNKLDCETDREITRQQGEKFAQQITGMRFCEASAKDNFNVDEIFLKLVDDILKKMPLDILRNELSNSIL
Briefly: dynamic scanning fluorimetry (SYPRO Orange). It is filed as binding. The settings on record: 1 mM nucleotide, 4 uM protein, 2.5 mM MgCl2, pH 7.4.

The next assay has as its target T9, Rab7A (Homo sapiens, UniProt P51149).
T9 construct: near full-length without C-terminal prenylation region; pET-28a, His6 tag cut by TEV; E. coli BL21(DE3)
Briefly: dynamic scanning fluorimetry (SYPRO Orange). It is filed as binding. The following applies: 1 mM nucleotide, 4 uM protein, 2.5 mM MgCl2, pH 7.4.

A further assay deals with T10, Rab2A (Homo sapiens, UniProt P61019).
T10 construct: near full-length without C-terminal prenylation region; pET-28a, His6 tag cut by TEV; E. coli BL21(DE3)
Briefly: dynamic scanning fluorimetry (SYPRO Orange). It is filed as binding. The settings on record: 1 mM nucleotide, 4 uM protein, 2.5 mM MgCl2, pH 7.4.

Another assay addresses T11, Rab15 (Homo sapiens, UniProt P59190).
T11 construct: near full-length without C-terminal prenylation region; pET-28a, His6 tag cut by TEV; E. coli BL21(DE3)
T11 sequence (P59190 1-208 limits assumed): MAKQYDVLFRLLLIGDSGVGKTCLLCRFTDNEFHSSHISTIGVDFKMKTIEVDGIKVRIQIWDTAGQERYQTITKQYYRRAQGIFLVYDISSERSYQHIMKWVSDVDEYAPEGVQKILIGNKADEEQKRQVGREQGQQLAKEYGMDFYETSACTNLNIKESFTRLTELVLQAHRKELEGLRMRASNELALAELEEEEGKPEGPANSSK
Briefly: dynamic scanning fluorimetry (SYPRO Orange). It is filed as binding. The following applies: 1 mM nucleotide, 4 uM protein, 2.5 mM MgCl2, pH 7.4.

For a further assay, the target named is T12, Rab13 (Homo sapiens, UniProt P51153).
T12 construct: near full-length without C-terminal prenylation region; pET-28a, His6 tag cut by TEV; E. coli BL21(DE3)
T12 sequence (P51153 1-180 limits assumed): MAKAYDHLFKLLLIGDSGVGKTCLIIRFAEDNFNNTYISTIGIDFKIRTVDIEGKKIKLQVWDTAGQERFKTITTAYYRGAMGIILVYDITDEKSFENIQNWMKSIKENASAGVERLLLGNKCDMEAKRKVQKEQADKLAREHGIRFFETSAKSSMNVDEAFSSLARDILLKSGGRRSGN
Briefly: dynamic scanning fluorimetry (SYPRO Orange). The assay is classed as binding. The settings on record: 1 mM nucleotide, 4 uM protein, 2.5 mM MgCl2, pH 7.4.

The next assay addresses T13, Rab43 (Homo sapiens, UniProt Q86YS6).
T13 construct: near full-length without C-terminal prenylation region; pET-28a, His6 tag cut by TEV; E. coli BL21(DE3)
T13 sequence (Q86YS6 1-185 limits assumed): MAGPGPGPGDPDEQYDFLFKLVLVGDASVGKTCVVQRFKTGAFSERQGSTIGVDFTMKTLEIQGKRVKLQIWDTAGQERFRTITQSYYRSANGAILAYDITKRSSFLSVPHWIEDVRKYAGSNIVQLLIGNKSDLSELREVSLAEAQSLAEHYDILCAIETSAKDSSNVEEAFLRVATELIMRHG
Briefly: dynamic scanning fluorimetry (SYPRO Orange). The settings on record: 1 mM nucleotide, 4 uM protein, 2.5 mM MgCl2, pH 7.4. It is filed as binding.

For assay [1], the target named is LRRK2 (Leucine-rich repeat kinase 2) (UniProt Q5S007).
Chain of LRRK2 (Leucine-rich repeat kinase 2) (Q5S007 whole entry): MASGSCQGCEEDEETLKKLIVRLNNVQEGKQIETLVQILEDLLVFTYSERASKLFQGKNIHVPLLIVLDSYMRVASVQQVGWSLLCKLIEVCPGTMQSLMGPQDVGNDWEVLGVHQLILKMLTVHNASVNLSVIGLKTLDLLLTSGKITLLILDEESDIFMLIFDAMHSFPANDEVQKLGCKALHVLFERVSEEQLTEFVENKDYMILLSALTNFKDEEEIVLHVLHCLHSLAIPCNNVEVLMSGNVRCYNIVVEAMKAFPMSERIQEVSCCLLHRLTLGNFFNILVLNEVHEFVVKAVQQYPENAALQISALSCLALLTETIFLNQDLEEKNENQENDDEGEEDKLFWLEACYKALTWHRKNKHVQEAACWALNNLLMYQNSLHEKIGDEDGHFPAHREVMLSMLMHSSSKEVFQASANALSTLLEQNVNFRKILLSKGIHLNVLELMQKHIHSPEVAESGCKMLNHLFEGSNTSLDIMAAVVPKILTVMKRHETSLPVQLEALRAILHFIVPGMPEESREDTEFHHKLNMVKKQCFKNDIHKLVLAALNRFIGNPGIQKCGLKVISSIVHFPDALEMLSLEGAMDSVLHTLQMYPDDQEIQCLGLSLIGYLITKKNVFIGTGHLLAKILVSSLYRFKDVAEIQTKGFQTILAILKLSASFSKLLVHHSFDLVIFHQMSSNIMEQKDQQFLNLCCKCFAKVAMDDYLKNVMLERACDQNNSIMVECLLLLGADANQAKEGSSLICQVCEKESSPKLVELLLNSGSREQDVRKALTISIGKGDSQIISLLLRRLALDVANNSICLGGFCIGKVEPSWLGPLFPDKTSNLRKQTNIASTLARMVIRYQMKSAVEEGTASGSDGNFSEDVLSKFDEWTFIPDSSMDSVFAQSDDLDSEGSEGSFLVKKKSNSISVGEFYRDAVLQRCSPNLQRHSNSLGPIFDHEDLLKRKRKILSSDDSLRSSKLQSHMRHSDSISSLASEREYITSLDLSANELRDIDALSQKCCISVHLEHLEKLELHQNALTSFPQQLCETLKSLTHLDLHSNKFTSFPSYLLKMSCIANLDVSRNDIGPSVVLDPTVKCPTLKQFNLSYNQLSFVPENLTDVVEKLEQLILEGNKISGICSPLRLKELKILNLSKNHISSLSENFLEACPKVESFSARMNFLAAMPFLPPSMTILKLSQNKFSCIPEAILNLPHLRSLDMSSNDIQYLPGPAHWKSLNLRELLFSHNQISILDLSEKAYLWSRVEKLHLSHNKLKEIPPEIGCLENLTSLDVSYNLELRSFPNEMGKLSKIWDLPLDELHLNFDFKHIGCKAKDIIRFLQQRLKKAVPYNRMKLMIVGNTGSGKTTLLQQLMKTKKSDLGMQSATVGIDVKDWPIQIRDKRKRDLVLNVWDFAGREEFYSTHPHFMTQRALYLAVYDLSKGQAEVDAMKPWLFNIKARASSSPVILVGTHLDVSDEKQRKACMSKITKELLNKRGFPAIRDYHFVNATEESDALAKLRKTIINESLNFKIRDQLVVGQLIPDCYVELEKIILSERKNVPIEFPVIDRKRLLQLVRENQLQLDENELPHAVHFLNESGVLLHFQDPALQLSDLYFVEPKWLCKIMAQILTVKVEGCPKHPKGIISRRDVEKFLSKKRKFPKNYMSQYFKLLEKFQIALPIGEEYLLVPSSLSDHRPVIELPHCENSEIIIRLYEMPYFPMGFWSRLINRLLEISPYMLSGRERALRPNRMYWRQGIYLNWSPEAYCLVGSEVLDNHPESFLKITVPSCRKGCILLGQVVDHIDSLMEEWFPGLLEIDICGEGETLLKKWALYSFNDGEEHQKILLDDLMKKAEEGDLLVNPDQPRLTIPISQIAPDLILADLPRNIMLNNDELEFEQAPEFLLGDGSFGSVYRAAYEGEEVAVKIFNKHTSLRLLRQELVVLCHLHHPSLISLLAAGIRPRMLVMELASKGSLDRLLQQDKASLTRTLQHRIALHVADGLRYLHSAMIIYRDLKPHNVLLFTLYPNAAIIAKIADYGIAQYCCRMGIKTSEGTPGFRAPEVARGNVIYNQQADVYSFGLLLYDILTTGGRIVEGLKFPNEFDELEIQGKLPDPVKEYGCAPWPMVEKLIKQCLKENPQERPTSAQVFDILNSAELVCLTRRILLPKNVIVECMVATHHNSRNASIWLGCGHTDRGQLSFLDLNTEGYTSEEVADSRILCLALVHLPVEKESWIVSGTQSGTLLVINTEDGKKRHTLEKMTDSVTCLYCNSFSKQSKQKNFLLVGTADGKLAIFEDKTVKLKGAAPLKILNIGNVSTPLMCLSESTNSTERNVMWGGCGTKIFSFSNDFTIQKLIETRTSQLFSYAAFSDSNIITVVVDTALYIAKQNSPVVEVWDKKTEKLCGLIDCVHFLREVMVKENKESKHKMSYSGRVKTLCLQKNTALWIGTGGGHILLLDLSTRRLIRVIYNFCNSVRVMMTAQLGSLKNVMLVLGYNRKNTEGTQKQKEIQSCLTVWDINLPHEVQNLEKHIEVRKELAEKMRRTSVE

T9 sequence (P51149 1-185 limits assumed): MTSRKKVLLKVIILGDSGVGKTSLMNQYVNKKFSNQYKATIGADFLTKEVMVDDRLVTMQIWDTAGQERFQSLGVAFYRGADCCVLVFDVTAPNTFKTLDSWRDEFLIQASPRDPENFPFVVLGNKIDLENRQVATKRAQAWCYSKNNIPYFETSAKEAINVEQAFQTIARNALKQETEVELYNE
T6 sequence (P62820 1-203 limits assumed): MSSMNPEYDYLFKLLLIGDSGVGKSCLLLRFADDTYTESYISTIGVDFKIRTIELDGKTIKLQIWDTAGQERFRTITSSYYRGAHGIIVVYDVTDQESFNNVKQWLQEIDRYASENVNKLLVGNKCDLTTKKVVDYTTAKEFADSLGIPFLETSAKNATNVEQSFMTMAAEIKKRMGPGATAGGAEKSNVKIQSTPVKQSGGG
T10 sequence (P61019 1-210 limits assumed): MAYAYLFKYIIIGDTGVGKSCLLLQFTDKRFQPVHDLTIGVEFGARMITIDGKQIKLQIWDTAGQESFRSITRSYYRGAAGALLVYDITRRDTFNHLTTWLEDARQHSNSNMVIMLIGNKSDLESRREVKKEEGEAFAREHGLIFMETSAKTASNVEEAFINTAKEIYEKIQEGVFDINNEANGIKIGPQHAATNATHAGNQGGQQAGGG

Turning to `Nc1nc2c(ncn2[C@@H]2O[C@H](COP(=O)(O)OP(=O)(O)O)[C@@H](O)[C@H]2O)c(=O)[nH]1` [GDP], the Tm entry on Rab10 is “All Rabs from the panel bound to and were stabilized by guanine nucleotides”; on Rab29, “All Rabs from the panel bound to and were stabilized by guanine nucleotides”; at Rab3A it was “All Rabs from the panel bound to and were stabilized by guanine nucleotides”; at Rab8B, “All Rabs from the panel bound to and were stabilized by guanine nucleotides”; on Rab1A, “All Rabs from the panel bound to and were stabilized by guanine nucleotides”; at Rab9A it was “for several Rabs including Rab9A and Rab13, the Rab:GDP and Rab:GTP complexes displayed equal stability”. Moreover, the Tm entry at Rab12 was “All Rabs from the panel bound to and were stabilized by guanine nucleotides”; at Rab7A, “All Rabs from the panel bound to and were stabilized by guanine nucleotides”; at Rab2A it was “All Rabs from the panel bound to and were stabilized by guanine nucleotides”; on Rab15, “All Rabs from the panel bound to and were stabilized by guanine nucleotides”; at Rab13, “for several Rabs including Rab9A and Rab13, the Rab:GDP and Rab:GTP complexes displayed equal stability”; at Rab43, “All Rabs from the panel bound to and were stabilized by guanine nucleotides”. In addition, at Rab8A, the dTm is recorded as 15 K.

`Nc1nc2c(ncn2[C@@H]2O[C@H](COP(=O)(O)OP(=O)(O)OP(=O)(O)O)[C@@H](O)[C@H]2O)c(=O)[nH]1` [GTP]: the Tm result at Rab10 was “All Rabs from the panel bound to and were stabilized by guanine nucleotides”; at Rab9A, “for several Rabs including Rab9A and Rab13, the Rab:GDP and Rab:GTP complexes displayed equal stability”; at Rab7A, “All Rabs from the panel bound to and were stabilized by guanine nucleotides”; on Rab13, “for several Rabs including Rab9A and Rab13, the Rab:GDP and Rab:GTP complexes displayed equal stability”. For the same compound, the dTm on Rab8A is listed as 21 K.

“Rab8A E108R (from UniProt P61006 1-207) (natural protein)” returned a T72 phosphograde of the Rab8A:GDP variant after phosphorylation by LRRK2, relative to wildtype Rab8A (ESI-TOF MS kinase activity assay) (fold (increase)) in assay [1] of 18.

In turn, “Rab8A R104A (from UniProt P61006 1-207) (natural protein)” had a T72 phosphograde of the Rab8A:GDP variant after phosphorylation by LRRK2, relative to wildtype Rab8A (ESI-TOF MS kinase activity assay) (fold (reduced)) in [1] of 2.

These data come from paper PMC12599248, “Selectivity profiles and substrate recognition of Rab-phosphorylating kinases” (Biochemical Journal, 2025).
